Experimental data published in patent US20130196050A1, “SALTY TASTE ENHANCER” (AJINOMOTO CO., INC., priority 2010, published 2013).

Key:
ENaC β subunit = target: T1, ENaC β subunit (Homo sapiens, UniProt P51168); conditions: literature statement; cited from earlier work
T1 sequence (P51168 1-640): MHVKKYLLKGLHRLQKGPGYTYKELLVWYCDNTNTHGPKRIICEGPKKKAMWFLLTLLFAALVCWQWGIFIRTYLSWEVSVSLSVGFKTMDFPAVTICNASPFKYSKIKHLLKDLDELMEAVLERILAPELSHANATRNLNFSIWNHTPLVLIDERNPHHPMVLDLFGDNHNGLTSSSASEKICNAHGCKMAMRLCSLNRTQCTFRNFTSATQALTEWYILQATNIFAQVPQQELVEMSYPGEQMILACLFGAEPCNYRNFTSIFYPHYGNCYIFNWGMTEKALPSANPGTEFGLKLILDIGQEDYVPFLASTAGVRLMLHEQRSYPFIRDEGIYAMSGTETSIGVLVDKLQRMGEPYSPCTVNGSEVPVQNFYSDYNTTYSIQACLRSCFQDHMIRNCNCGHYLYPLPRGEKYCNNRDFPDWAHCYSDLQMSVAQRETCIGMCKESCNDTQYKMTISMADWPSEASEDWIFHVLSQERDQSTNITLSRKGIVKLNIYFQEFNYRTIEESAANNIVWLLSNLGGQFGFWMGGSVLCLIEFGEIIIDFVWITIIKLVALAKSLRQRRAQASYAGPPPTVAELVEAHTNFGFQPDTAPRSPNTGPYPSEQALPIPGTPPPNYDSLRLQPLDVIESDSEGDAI
T1 sequence (P51170 1-649 partner): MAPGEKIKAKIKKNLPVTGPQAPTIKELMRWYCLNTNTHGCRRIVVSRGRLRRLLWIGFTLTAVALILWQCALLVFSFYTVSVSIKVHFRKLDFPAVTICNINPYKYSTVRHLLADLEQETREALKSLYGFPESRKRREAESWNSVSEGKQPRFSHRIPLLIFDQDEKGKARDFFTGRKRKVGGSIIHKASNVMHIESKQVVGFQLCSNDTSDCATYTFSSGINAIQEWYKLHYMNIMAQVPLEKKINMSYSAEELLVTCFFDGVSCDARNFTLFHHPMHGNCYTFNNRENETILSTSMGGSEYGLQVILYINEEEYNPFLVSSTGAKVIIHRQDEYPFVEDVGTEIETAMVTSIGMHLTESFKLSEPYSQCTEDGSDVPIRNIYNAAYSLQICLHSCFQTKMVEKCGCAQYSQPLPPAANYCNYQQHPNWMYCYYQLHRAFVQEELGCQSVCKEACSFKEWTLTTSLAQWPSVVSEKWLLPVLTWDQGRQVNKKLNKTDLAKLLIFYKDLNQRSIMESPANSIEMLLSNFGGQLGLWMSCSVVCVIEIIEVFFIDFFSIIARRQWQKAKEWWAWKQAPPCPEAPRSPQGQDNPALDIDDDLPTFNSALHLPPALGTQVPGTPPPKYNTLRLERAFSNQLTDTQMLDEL
T1 sequence (P37088 1-669 partner): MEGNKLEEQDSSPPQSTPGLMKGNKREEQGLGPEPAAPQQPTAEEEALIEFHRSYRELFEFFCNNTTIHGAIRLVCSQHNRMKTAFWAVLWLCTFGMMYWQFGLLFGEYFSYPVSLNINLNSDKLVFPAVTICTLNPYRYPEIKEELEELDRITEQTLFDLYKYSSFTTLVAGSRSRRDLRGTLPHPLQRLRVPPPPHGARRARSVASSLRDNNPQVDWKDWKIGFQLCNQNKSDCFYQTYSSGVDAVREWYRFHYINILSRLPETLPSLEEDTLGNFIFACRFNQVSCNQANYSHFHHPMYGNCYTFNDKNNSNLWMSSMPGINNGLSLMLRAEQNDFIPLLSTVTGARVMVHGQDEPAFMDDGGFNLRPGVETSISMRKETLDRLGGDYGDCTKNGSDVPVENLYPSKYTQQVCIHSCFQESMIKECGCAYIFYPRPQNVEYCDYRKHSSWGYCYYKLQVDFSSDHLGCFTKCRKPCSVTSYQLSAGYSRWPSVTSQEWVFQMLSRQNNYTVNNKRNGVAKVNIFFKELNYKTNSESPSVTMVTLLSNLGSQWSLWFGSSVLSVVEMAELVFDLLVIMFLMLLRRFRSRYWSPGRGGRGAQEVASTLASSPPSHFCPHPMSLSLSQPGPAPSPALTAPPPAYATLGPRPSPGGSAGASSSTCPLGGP

[1] = target: T2, Human ENaC δ, β and γ subunit (Homo sapiens, UniProt P51168+P51170+P51172); assay: Measurement of ENaC activation potency (two electrode voltage clamp current in ENaC-expressing oocyte); assay type: cell-based; conditions: lowest concentration increasing the current value by not less than 10% vs before addition
T2 construct: expressed in transfected cells; host or cells: Xenopus laevis (African clawed frog) oocytes injected with cRNA
T2 sequence (P51172 1-638 isoform P51172-1): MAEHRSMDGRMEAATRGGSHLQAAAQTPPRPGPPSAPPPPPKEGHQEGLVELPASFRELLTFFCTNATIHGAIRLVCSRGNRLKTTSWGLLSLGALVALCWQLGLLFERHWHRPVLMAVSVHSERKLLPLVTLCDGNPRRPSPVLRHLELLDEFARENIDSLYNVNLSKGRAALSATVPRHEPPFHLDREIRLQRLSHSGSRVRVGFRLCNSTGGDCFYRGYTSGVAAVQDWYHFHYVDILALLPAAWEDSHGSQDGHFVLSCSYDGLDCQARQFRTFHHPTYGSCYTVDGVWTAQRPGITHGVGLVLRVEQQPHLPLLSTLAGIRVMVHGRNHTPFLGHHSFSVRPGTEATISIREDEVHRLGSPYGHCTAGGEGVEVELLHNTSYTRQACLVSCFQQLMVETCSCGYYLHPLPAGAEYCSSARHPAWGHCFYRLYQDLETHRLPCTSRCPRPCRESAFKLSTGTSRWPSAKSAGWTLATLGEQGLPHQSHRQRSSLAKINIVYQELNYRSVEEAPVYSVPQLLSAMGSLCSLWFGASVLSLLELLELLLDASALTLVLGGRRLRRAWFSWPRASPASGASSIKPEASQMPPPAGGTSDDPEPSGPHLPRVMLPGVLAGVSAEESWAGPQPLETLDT
T2 sequence (P51168 1-640): T1 sequence (P51168 1-640)
T2 sequence (P51170 1-649): T1 sequence (P51170 1-649 partner)
Protocol: ENaC activation current value, namely, the inward current in ENaC-expressing oocyte was measured as follows.
According to the method described in Motonao Nakamura, Takao Shimizu: Experiment of African clawed frog oocyte, Experimental Medicine Vol. 11, No. 3, 224-232 (1993), oocyte was collected from African clawed frog, […], and the current value was measured by a Two Electrode Voltage Clamp technique. In the present invention, ND96 (96 mM NaCl, 2 mM KCl, 1 mM MgCl2, 5 mM Hepes, 1.8 mM CaCl2, pH 7.6) was used instead of MBS buffer in the above-mentioned document. Injector NANOLITER 2000 manufactured by World Precision Instruments was used for microinjection, OpusXpress 6000A manufactured by Molecular Devices was used for current value measurement by a Two Electrode Voltage Clamp technique, and Clampfit 10.2 software manufactured by Molecular Devices was used for data analysis.
Human ENaC δ, β and γ subunit genes shown by SEQ ID NOs: 1, 2 and 3, respectively, in the Sequence Listing were each cloned into a plasmid vector, and used as a template DNA for cRNA synthesis. cRNA was synthesized using MEGAscript kit manufactured by Ambion and according to the method of the manual of the manufacturer.
A mixture of the same amount of ENaC δ subunit cRNA (0.4 to 0.8 μg/μL), and β and γ subunits cRNA (0.4 μg/μL) was injected into the oocyte of African clawed frog at 27.6 nL per oocyte, and the oocyte was cultured for 16 hours to 72 hours. Thereafter, the oocyte was set on a measuring apparatus OpusXpress 6000A, the electrodes were inserted into the oocyte, the voltage was clamped at a level lower by −30 mV than the resting membrane potential by a Two Electrode Voltage Clamp technique, and the current value was measured.
To measure the ENaC activation potency, oocyte was stimulated with each test compound, and the minimum effective dose (hereinafter to be abbreviated as MED) of the compound at the time point when the electric current started to increase was measured. In this case, the minimum effective dose of the stimulation compound that increased the current value by not less than 10%, as compared to the current value before addition of the compound and without stimulation, was taken as MED. A smaller MED means higher ENaC activation potency.
Each test compound was directly dissolved in ND96, or first dissolved in dimethyl sulfoxide (DMSO) to 100 mM, and then prepared by diluting the solution with ND96 to a concentration used for the evaluation. The concentration of the test compound in ND96 was prepared to various concentrations within the range of 0.1 nM to 300 μm.
ND96 as a perfusion fluid was flowed at a rate of 0.5 mL/min through the measuring apparatus OpusXpress 6000A on which ENaC-expressing oocyte was set, the perfusion fluid was temporarily stopped every 3 minutes to add a test compound solution (0.25 mL) dissolved in ND96 at a rate of 0.5 mL/minute. In this way, the test compound was contacted with ENaC-expressing oocyte, and whether ENaC is activated by the compound was examined by measuring the current value. After addition of the test compound, feeding of the perfusion fluid was resumed to wash away the compound to be ready for the next addition of the compound.
The compound was added successively from a low concentration to a high concentration to stimulate ENaC-expressing oocyte. The concentrations actually added was, for example, 1 nM, 3 nM, 10 nM, 30 nM, 100 nM, 300 nM; 1 μM, 3 μM, 10 μm, 30 μm, 100 μm, 300 μm; 1.2 μM, 6 μM, 30 μm, 150 μm of one test compound. The compound was added from low concentrations to high concentrations at 3 minute intervals. The first compound was added from a low concentration to a high concentration, then the second and the third compounds were similarly added successively to the same oocyte, and changes in the current value were measured. The current value was continuously measured from the start to the end of the experiment. […]

Row | SMILES | action on ENaC (ENaC β subunit) | MED value (minimum effective dose) [1] [µM]
1 | Cc1cccc2[nH]cc(SC(CC(C)C)C(=O)NCCO)c12 (stereo not shown) [Example S3969, N-(2-hydroxyethyl)-4-methyl-2-(4-methyl-1H-indol-3-ylthio)pentanamide] | stimulant (activator) of ENaC that acts on β subunit | 
2 | O=C(NC(Cc1c[nH]c2cc(F)ccc12)C(=O)O)c1c(O)cccc1O (stereo not shown) [Example 19] |  | 1
3 | O=C(N[C@@H](Cc1c[nH]c2ccc(O)cc12)C(=O)O)c1c(O)cccc1O [Example 12] |  | 3
4 | COC(=O)[C@H](CCc1ccccc1)NC(=O)c1c(O)cc(C)cc1O [Example 116] |  | 3 to 10
